Measured values as given in PMC3184404 (The FEBS journal, 2011).
Where two headings read alike, the source gives them in different places. One block for each molecule: values may come before it.

Legend:
[1] = molecular target: T1, Bovine liver glutamate dehydrogenase (Bos taurus, UniProt P00366); details: cited from earlier work
[2] = molecular target: T1, Bovine liver glutamate dehydrogenase; assay: Fluorescence titrations of reduced cofactor binding; details: NADPH, pH 8.0
[3] = molecular target: T1, Bovine liver glutamate dehydrogenase; assay: Thermal stability by differential scanning calorimetry; format: binding
[4] = tested on: immobilized trypsin; assay: Control experiments with azocasein on immobilized protease; format: biochemical; details: azocasein as substrate, zinc at the concentrations used
[5] = molecular target: T1, Bovine liver glutamate dehydrogenase; details: pH 7.0, 1mM NAD^+
[6] = molecular target: T1, Bovine liver glutamate dehydrogenase; details: plus zinc
[7] = molecular target: T1, Bovine liver glutamate dehydrogenase; assay: Initial rate kinetics of oxidative deamination, zinc inhibition; format: biochemical
[8] = enzyme + 200mM norvaline, pH 7.0
[9] = enzyme + 20mM glutamate + zinc, pH 7.0
[10] = enzyme + 200mM norvaline + zinc, pH 7.0
[11] = enzyme + zinc, 0.1 M phosphate pH 7.0
[12] = control experiments, data not shown

T1 sequence (P00366 58-558): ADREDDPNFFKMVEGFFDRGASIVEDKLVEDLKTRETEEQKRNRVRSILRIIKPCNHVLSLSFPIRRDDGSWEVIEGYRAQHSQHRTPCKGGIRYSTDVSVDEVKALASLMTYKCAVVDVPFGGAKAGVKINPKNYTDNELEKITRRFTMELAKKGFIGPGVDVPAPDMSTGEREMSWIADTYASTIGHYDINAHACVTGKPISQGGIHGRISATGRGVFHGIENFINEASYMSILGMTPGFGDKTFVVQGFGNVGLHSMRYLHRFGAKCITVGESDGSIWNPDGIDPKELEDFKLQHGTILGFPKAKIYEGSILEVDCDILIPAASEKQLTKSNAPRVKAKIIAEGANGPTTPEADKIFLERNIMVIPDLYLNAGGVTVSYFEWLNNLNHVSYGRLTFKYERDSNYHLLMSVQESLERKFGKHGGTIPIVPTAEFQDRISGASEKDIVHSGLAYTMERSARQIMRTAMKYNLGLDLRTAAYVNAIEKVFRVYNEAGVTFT

TM [3, 8]: 67.8 °C
ΔH [3, 8]: 188.7
ΔS [3, 8]: 0.554
SMILES: CCC[C@H](N)C(=O)O [Norvaline, norvaline]

Effect on the activity of the enzyme [7, 12]: no effect
Effect on the inhibition by zinc [7, 12]: no effect
SMILES: [Mg+2] [magnesium]

Second part, the molecule before the results:

SMILES: [Cl-].[Cl-].[Cl-].[Eu+3] [Eu^3+, europium (III) chloride]
Effect on the ability of zinc to inhibit the enzyme [1]: reversed
Effect on the activity of the enzyme [1]: no effect

SMILES: NC(=O)C1=CN([C@@H]2O[C@H](COP(=O)(O)OP(=O)(O)OC[C@H]3O[C@@H](n4cnc5c(N)ncnc54)[C@H](OP(=O)(O)O)[C@@H]3O)[C@@H](O)[C@H]2O)C=CC1 [NADPH, Nicotinamide Adenine Dinucleotide Phosphate]
Kd ([2]; + 100 μM zinc): 1.04 µM
Kd ([2]; +20mM glutamate + 100 μM zinc): 1.72 µM
Kd ([2]; +20mM glutamate): 2.4 µM
Kd ([2]; +200mM norvaline + 100 μM zinc): 9.27 µM
Kd ([2]; +200mM norvaline): 7.35 µM
Kd ([2]; no additions): 6.33 µM

SMILES: CC(=O)[O-].CC(=O)[O-].[Zn+2] [Zinc, zinc acetate]
Effect on the immobilized protease [4]: did not effect
Pre-Steady State Burst Amplitude ([5]; 50mM glutamate + 100μM zinc): 1.053 340F450
Pre-Steady State Burst Rate ([5]; 50mM glutamate + 100μM zinc): 0.858 340F450/sec
Steady State Rate ([5]; 50mM glutamate + 100μM zinc): 0.187 340F450/sec
Pre-Steady State Burst Amplitude ([5]; 50mM glutamate + 200μM zinc): 0.771 340F450
Pre-Steady State Burst Rate ([5]; 50mM glutamate + 200μM zinc): 0.972 340F450/sec
Steady State Rate ([5]; 50mM glutamate + 200μM zinc): 0.158 340F450/sec
TM [3, 9]: 59.3 °C
ΔH [3, 9]: 126.4
ΔS [3, 9]: 0.381
TM [3, 10]: 68.1 °C
ΔH [3, 10]: 179.9
ΔS [3, 10]: 0.528
TM [3, 11]: 59.2 °C
ΔH [3, 11]: 128.9
ΔS [3, 11]: 0.388
Fragment 3446 (residues 114–146) Peak Height relative to ACTH standard ([6]; 5 Mins, pH 8.0): 0.52
Fragment 4089 (residues 1–35) Peak Height relative to ACTH standard ([6]; 5 Mins, pH 8.0): 0
Fragment 34,645 (residues 144–459) Peak Height relative to Native ([6]; 5 Mins, pH 8.0): 0.17
Fragment 3446 (residues 114–146) Peak Height relative to ACTH standard ([6]; 10 Mins, pH 8.0): 0.54
Fragment 4089 (residues 1–35) Peak Height relative to ACTH standard ([6]; 10 Mins, pH 8.0): 0.16
Fragment 34,645 (residues 144–459) Peak Height relative to Native ([6]; 10 Mins, pH 8.0): 0.18
Fragment 3446 (residues 114–146) Peak Height relative to ACTH standard ([6]; 15 Mins, pH 8.0): 0.75
Fragment 4089 (residues 1–35) Peak Height relative to ACTH standard ([6]; 15 Mins, pH 8.0): 0.68
Fragment 34,645 (residues 144–459) Peak Height relative to Native ([6]; 15 Mins, pH 8.0): 0.86
Fragment 3446 (residues 114–146) Peak Height relative to ACTH standard ([6]; Time = 0, pH 8.0): 0
Fragment 4089 (residues 1–35) Peak Height relative to ACTH standard ([6]; Time = 0, pH 8.0): 0
Fragment 34,645 (residues 144–459) Peak Height relative to Native ([6]; Time = 0, pH 8.0): 0
Inhibition at saturating concentrations of substrates [7]: potent inhibitor
Inhibition of oxidative deamination with glutamate as substrate ([7]; pH 8): effective inhibition
Inhibition of oxidative deamination with norvaline as substrate ([7]; pH 8): no significant inhibition
